Measurements taken from patent US12357581B2, “Nanoparticles comprising copolymeric or homopolymeric compounds which comprise cyanoacrylate subunits” (SINTEF TTO AS, priority 2019, dated 2025).
Entries after “also recorded” stand apart in the source; their conditions may differ.

Columns and labels:
[1] = Solubility of API/dyes with ACA monomers (visual); assay type: physicochemical; conditions: typically 5.0 mg in 100 ul monomer, 24 h; for Solubility of CBZ in the monomer (blend): cabazitaxel
Text: Solubility and degree of polymerization were monitored visually.
Where the result is given as ‘soluble’, the API was soluble in the choose monomer with no visual residue, and there can be used as a combination to prepare API loaded nanoparticles. If the results are given as insoluble or partially, it is an indication that this combination cannot be used to prepared API loaded nanoparticles.

LLC-PK1 = assay: Alcohol toxicity, MTT cell viability assay, LLC-PK1; assay type: cell-based, porcine; conditions: 24 h, vs untreated control
Protocol: (§1) MTT cell viability assay.
(§2) Alcohol toxicity is disclosed in Table 3: Alcohol toxicity was assessed by exposure of the cells to a given concentration of alcohol to a limit of 3 wt %. Cell activity was determined after 24 h and compared to an untreated control. Data is reported as percentage remaining cell activity (vs control) in 3% alcohol in three individual cell lines. The greater the percentage of remaining activity, the lower the toxicity of the alcohol to the cell line. Thus, Hep G2 cells exposed to 3 wt % 2-ethylhexanol retained 91.2% activity, whereas Hep G2 cells exposed to 3 wt % 2-ethylbutanol retained only 74.6% activity. Thus 2-ethylhexanol is less toxic to Hep G2 cells than 2-ethylbutanol.

Hep G2 = assay: Alcohol toxicity, MTT cell viability assay, Hep G2; assay type: cell-based, human; conditions: 24 h, vs untreated control
Protocol: as §1, §2

IMR-90 = assay: Alcohol toxicity, MTT cell viability assay, IMR-90; assay type: cell-based, human; conditions: 24 h, vs untreated control
Protocol: as §1, §2

[2] = test system: Hep G2 cell line and LLC-PK1
Protocol: Cell lines: The cell lines were used for determining alcohol cytotoxicity Hep G2 (Human liver cancer cell line), LLC-PK1 (Porcine kidney cell line) and IMR-90 (Human lung fibroblast cell line). All medium was fortified with 10% (w/v) fetal calf serum albumin (Sigma) and 100 units/ml penicillin/streptomycin (PenStrep®, Sigma). All cell lines were obtained from ATCC and were routinely tested for mycoplasma. Cells growing in 24- or 96-well plates were incubated with serial dilutions of the alcohol for 24 h, at 37° C. in an atmosphere of 5% CO2. The toxicity was assessed the commonly used MTT (3-(4,5-dimethylthiazol-2-yl)-2,5-diphenyltetrazolium bromide) cell viability assay.
MTT cell viability assay. The cells were incubated for 24 with the different nanoparticles/substances. The cell medium was then aspirated and exchanged with 100 μl of medium containing a final concentration of 250 μg MTT/ml. The incubation was continued for 3 h at 37° C. for formation of the formazan-particles, which were dissolved in DMSO with 1% (v/v) NH4Cl. The absorbance was read in a plate reader (Biosys Ltd, Essex, UK) at 570 nm, and background from absorbance at 650 nm was subtracted.

Compound	Solubility of CBZ in the monomer (blend) [1]	Solubility of Alpelisib in the monomer (blend) [1]	Solubility of Mupirocin in the monomer (blend) [1]	Solubility of Oxaliplatin in the monomer (blend) [1]	Cell activity remaining at 3.00 wt % alcohol (%), LLC-PK1 (LLC-PK1)	Cell activity remaining at 3.00 wt % alcohol (%), Hep G2 (Hep G2)	Cell activity remaining at 3.00 wt % alcohol (%), IMR-90 (IMR-90)	also measured
C=C(C#N)C(=O)OCCC(C)C [3-MBCA, 3-methylbutyl cyanoacrylate]	Soluble	Soluble	Insoluble	Insoluble				
C=C(C#N)C(=O)OC(CC)CCCC (stereo not drawn) [3-HPCA, 3-heptyl cyanoacrylate]	Soluble	Soluble	Partially	Insoluble				
CC(C)CCO [3-methylbutanol]					94.3%	72.4%	67.6%	
C=C(C#N)C(=O)OC(CC)CC [3-PCA, 3-pentyl cyanoacrylate]	Soluble	Soluble	Soluble; also recorded: able to dissolve	Insoluble				
CCCCCO [1-pentanol]					83.4%	63.3%	57.1%	
CCC(CC)CO [2-ethylbutanol (control), 2-ethylbutanol, reference compound]					86.2%	74.6%	69.1%	
C=C(C#N)C(=O)OCCC(C)(C)C [3,3-DMBCA, 3,3-dimethyl-1 butyl cyanoacrylate]	Soluble	Soluble	Insoluble	Insoluble				
CCCCCCCCO [1-octanol (control), 1-octanol, reference compound]					1.8%	69.8%	0.9%	
CC(C)(C)CCO [3,3-dimethylbutanol]					98.2%	84.8%	81.7%	
OCCc1ccccc1 [2-phenylethanol]					1.1%	0.9%	0.6%	Toxicity at 3% alcohol [2]: significant toxicity
C=C(C#N)C(=O)OC(C)CCCCC (stereo not drawn) [2-HPCA, 2-heptyl cyanoacrylate]	Soluble	Soluble	Soluble; also recorded: able to dissolve	Insoluble				
1-butanol [1-butanol (control), reference compound]					81.8%	61.8%	59.7%	
CCCCC(CC)CO (stereo not drawn) [2-ethylhexanol]					79.8%	91.2%	7.9%	
CCCCCCCO [1-heptanol]					61.8%	72.3%	58.3%	
CCCCC(O)CC (stereo not drawn) [3-heptanol]					96.4%	81.4%	81.7%	
C=C(C#N)C(=O)OCCCCCCC [1-HPCA, 1-heptyl cyanoacrylate]	Soluble	Soluble	Insoluble	Insoluble				Solubility of Belinostat in the monomer (blend) [1]: Soluble; Solubility of Docetaxil in the monomer (blend) [1]: Soluble
C=C(C#N)C(=O)OCCCCC [1-PCA, 1-pentyl cyanoacrylate]	Soluble	Soluble	Insoluble	Insoluble				
C=C(C#N)C(=O)OCC(CC)CC [EBCA (control), 2-ethylbutyl cyanoacrylate, reference compound]								Solubility of Belinostat in the monomer (blend) [1]: not
C=C(C#N)C(=O)OCCCCCCCC [OCA (control), 1-octyl cyanoacrylate, reference compound]			insoluble					
CCCCCC(C)O (stereo not drawn) [2-heptanol]					81.1%	73.9%	50.7%	
CCC(O)CC [3-pentanol]					78.6%	89.7%	84.6%	
C=C(C#N)C(=O)OCCc1ccccc1 [2-PECA, 2-phenylethyl cyanoacrylate]	dissolves	dissolves		dissolves				
